Measurements taken from patent publication US10654859B2, “Methanesulfonate polymorph of 5-type phosphodiesterase inhibitor and preparation method and applications thereof” (JINAN MEILUWEI BIOTECHNOLOGY CO., LTD., priority 2017, dated 2020).

Assay: Solubility test (Chinese Pharmacopoeia 2010 criteria)
Type: physicochemical
Conditions: 25° C.±2° C.; for solubility in 95% ethanol (pharmacopoeia term) / solubility in water (pharmacopoeia term): observed within 30 minutes
Method: The regulations on solubility in the guide to the second volume of Chinese Pharmacopoeia 2010 edition are used as criteria.
Weigh samples ground to fine powder (sample B: the compound of formula A; sample C: the methanesulfonate polymorph of the compound of formula A prepared in Embodiment 1), put the samples into a certain volume of solvent at 25° C.±2° C., and vigorously shake the samples for 30 seconds every 5 minutes; observe the dissolution within 30 minutes, wherein if solute particles are not observed, the samples are completely dissolved.

amount of 95% ethanol in which 1 g of sample is dissolved [g]	solubility in 95% ethanol (pharmacopoeia term)	amount of water in which 1 g of sample is dissolved [g]	solubility in water (pharmacopoeia term)	SMILES
≤ 90	slightly soluble	≤ 800	slightly soluble	CCCc1nn(C)c2c(=S)[nH]c(-c3cc(C(=S)N4CCN(C)CC4)ccc3OCC)nc12 [sample C, 5-[2-ethoxy-5-(4-methylpiperazin-1-ylthiocarbonyl)phenyl]-1-methyl 3-n-propyl-1,6-dihydro-pyrazolo[4,3-d]pyrimidin-7-thione methanesulfonate polymorph]
> 10000	almost insoluble	> 10000	hardly soluble	CCCc1nn(C)c2c(=S)[nH]c(-c3cc(C(=S)N4CCN(C)CC4)ccc3OCC)nc12 [sample B, 5-[2-ethoxy-5-(4-methylpiperazin-1-ylthiocarbonyl)phenyl]-1-methyl-3-n-propyl-1,6-dihydro-pyrazolo[4,3-d]pyrimidin-7-thione]
